In the NIST ThermoML archive (doi:10.1016/j.fluid.2013.08.022):

Assay: wn = mass fraction of the nth substance listed
Conditions: 298.15 K, 101 kPa, Liquid; for viscosity: Cone and plate viscometry; for mass density: Vibrating tube method

viscosity (w1 = 1) [mPa·s]	mass density (w1 = 1) [kg/m3]	viscosity (w2 = 0) [mPa·s]	viscosity (w2 = 0.25) [mPa·s]	viscosity (w2 = 0.5) [mPa·s]	viscosity (w2 = 0.75) [mPa·s]	mass density (w2 = 0) [kg/m3]	mass density (w2 = 0.25) [kg/m3]	mass density (w2 = 0.5) [kg/m3]	mass density (w2 = 0.75) [kg/m3]	Compound
0.34	776.85	–	–	–	–	–	–	–	–	CC#N [acetonitrile] + CCOC(=O)OCC
–	–	0.74	0.65	0.57	0.45	969.17	921.12	873.25	824.87	CCOC(=O)OCC [diethyl carbonate] + CC#N
